Results reported in patent US7078565B2, “Benzamide derivatives as antagonists of orexin receptors” (SmithKline Beecham plc, priority 2001, dated 2006).

Tests used:
freely-feeding rats = details: central administration, 4 hour time period; cited from earlier work
rat = assay: Rat sleep/EEG studies; type: in vivo; details: central administration at the onset of the normal sleep period; at the expense of paradoxical sleep and slow wave sleep 2
Description: Therefore antagonists of its receptors may be useful in the treatment of sleep disorders including insomnia.

With “orexin-A: peptide ligand for the orexin-1 receptor, an agonist of the orexin receptors; sequence given in b81 (QPLPDCCRQKTCSCRLYELLHGAGNHAAGILTL; not fully specified; Orexin-A; UniProt O43612 34-66, looked up)” as the substance, how does the “increase in food intake over control rats receiving vehicle” value (freely-feeding rats) read?
Its value is “approximately four-fold”.

And the arousal (rat)?
Its arousal is “dose-related increase in arousal”.
